Measurements taken from patent US8257928B2, “Methods for predicting and treating tumors resistant to drug, immunotherapy and radiation” (The Regents of the University of California, priority 2008, dated 2012).

Tested on: HMT3522 T4-2 cells
Test: Affymetrix U133A 2.0 gene expression profiling of T4-2 N-CoR2 cells vs T4-2 vector cells grown on rBM;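 also: total RNA converted to biotin-labelled cRNA, hybridized to arrays and confocally scanned, probe set intensities computed by GC-RMA, genes kept if flagged present in at least 2 of 8 samples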
Type: cell-based, human
Details: T4-2 N-CoR2 cells on rBM, 6 days
Experimental: HMT3522 T4-2 cells were derived from an epidermal growth factor (EGF)-dependent breast epithelial HMT3522 S-1 cells and an EGF-independent HMT3522 S-2 cells that spontaneously became malignant when injected into nude mice. HMT3522 T4-2 cells were propagated as monolayers on type I collagen-coated plastic surface in chemically defined medium consisting of DMEM:F12 medium (Invitrogen GIBCO), containing 250 ng/ml insulin (Boehringer Mannheim), 10 μg/ml transferrin (Sigma, St. Louis, Mo.), 2.6 ng/ml sodium splenetic (Collaborative Research), 10^−10 M estradiol (Sigma), 1.4×10^−6 M hydrocortisone (Collaborative Research), and 5 μg/ml prolactin (Sigma), as described in J. Cell Biol. 137:231-245 (1997).
Amphotropic retrovirus was produced in modified 293 cells or in Phoenix ampho cells (provided by Professor G. Nolan, Stanford Medical Center) with packaging vectors pCgp and pVSVG to boost viral titer. […] Sorted cells were expanded again in the presence of tetracycline.
To increase the yield of RNA for transcriptional profiling experiments, we grew 2×10^5 cells on top of rBM in a 60-mm tissue culture dish. As described, cells grown on top of rBM formed 3D cellular aggregates similar to those embedded in rBM. […] The cultures were maintained for 6 days before the collection of RNA samples.
Total RNA was extracted from monolayer culture or 3D culture by a modified TR1 reagent procedure as described (Biotechniques 19:942-945 (1995)) and purified using an RNeasy Mini Kit (Qiagen). Gene expression analysis was performed on an Affymetrix Human Genome U133A 2.0 GeneChip platform containing 22,283 probes according to the manufacturer's protocol (Affymetrix). Twenty micrograms of total RNA from each sample was processed to produce biotinylated cRNA targets. After hybridization, washing and staining arrays were scanned using a confocal scanner (Affymetrix). The hybridization intensity data was processed using the GeneChip Operating software (Affymetrix). Affymetrix .cel files (probe intensity files) were processed with ArrayAssist Lite (v3.4, Stratagene). The files were imported and processed with the GC-RMA algorithm to yield probe set intensities and additionally, Affymetrix Preset, Absent, Marginal flags were computed. These values were exported in .chp files, which were subsequently imported into the Partek Genomics Suite software (v6.2, Partek). The genes were filtered based on the Affymetrix P/A/M flags to retain only those genes that were present in at least 2 of the 8 samples.

Substance: N-CoR2
- MEAN INTENSITY (N) 33304_at ISG20: 482.12
- MEAN INTENSITY (N) 38037_at HBEGF: 361.24
- MEAN INTENSITY (N) 38043_at FAM3A: 68.61
- MEAN INTENSITY (N) 53991_at DENND2A: 20.60
- MEAN INTENSITY (N) 200696_s_at GSN: 914.82
- MEAN INTENSITY (N) 200821_at LAMP2: 347.91
- MEAN INTENSITY (N) 200914_x_at KTN1: 343.43
- MEAN INTENSITY (N) 201007_at HADHB: 7136.54
- MEAN INTENSITY (N) 201132_at HNRPH2: 143.04
- MEAN INTENSITY (N) 201215_at PLS3: 411.68
- MEAN INTENSITY (N) 201472_at VBP1: 161.81
- MEAN INTENSITY (N) 201540_at FHL1: 1059.88
- MEAN INTENSITY (N) 201661_s_at ACSL3: 24.61
- MEAN INTENSITY (N) 201864_at GDI1: 358.31
- MEAN INTENSITY (N) 201865_x_at NR3C1: 332.55
- MEAN INTENSITY (N) 201887_at IL13RA1: 93.97
- MEAN INTENSITY (N) 201917_s_at SLC25A36: 28.72
- MEAN INTENSITY (N) 201996_s_at SPEN: 72.47
- MEAN INTENSITY (N) 202169_s_at AASDIIPPT: 25.30
- MEAN INTENSITY (N) 202277_at SPTLC1: 110.99
- MEAN INTENSITY (N) 202351_at ITGAV: 510.51
- MEAN INTENSITY (N) 202371_at TCEAL4: 269.43
- MEAN INTENSITY (N) 202376_at SERPINA3: 196.67
- MEAN INTENSITY (N) 202378_s_at LEPROT: 228.55
- MEAN INTENSITY (N) 202411_at IFI27: 155.11
- MEAN INTENSITY (N) 202439_s_at IDS: 270.52
- MEAN INTENSITY (N) 202602_s_at HTATSF1: 79.70
- MEAN INTENSITY (N) 202829_s_at SYBL1: 38.13
- MEAN INTENSITY (N) 202923_s_at GCLC: 167.13
- MEAN INTENSITY (N) 203042_at LAMP2: 638.66
- MEAN INTENSITY (N) 203156_at AKAP11: 21.24
- MEAN INTENSITY (N) 203186_s_at S100A4: 227.62
- MEAN INTENSITY (N) 203303_at DYNLT3: 44.35
- MEAN INTENSITY (N) 203453_at SCNN1A: 142.26
- MEAN INTENSITY (N) 203780_at EVA1: 133.29
- MEAN INTENSITY (N) 203821_at HBEGF: 977.38
- MEAN INTENSITY (N) 203917_at CXADR: 71.25
- MEAN INTENSITY (N) 204020_at PURA: 200.32
- MEAN INTENSITY (N) 204097_s_at RBMX2: 21.99
- MEAN INTENSITY (N) 204343_at ABCA3: 38.38
- MEAN INTENSITY (N) 204351_at S100P: 180.28
- MEAN INTENSITY (N) 204533_at CXCL10: 24.04
- MEAN INTENSITY (N) 204584_at L1CAM: 327.45
- MEAN INTENSITY (N) 204602_at DKK1: 259.47
- MEAN INTENSITY (N) 204881_s_at UGCG: 120.86
- MEAN INTENSITY (N) 204976_s_at AMMECR1: 36.28
- MEAN INTENSITY (N) 204981_at SLC22A18: 205.14
- MEAN INTENSITY (N) 205097_at SLC26A2: 85.76
- MEAN INTENSITY (N) 205128_x_at PTGS1: 125.00
- MEAN INTENSITY (N) 205220_at GPR109B: 645.95
- MEAN INTENSITY (N) 205315_s_at SNTB2: 87.78
- MEAN INTENSITY (N) 205363_at BBOX1: 120.76
- MEAN INTENSITY (N) 205428_s_at CALB2: 143.13
- MEAN INTENSITY (N) 205569_at LAMP3: 64.51
- MEAN INTENSITY (N) 205595_at DSG3: 177.64
- MEAN INTENSITY (N) 205623_at ALDH3A1: 77.90
- MEAN INTENSITY (N) 205709_s_at CDS1: 42.93
- MEAN INTENSITY (N) 205767_at EREG: 183.71
- MEAN INTENSITY (N) 205809_s_at WASL: 77.44
- MEAN INTENSITY (N) 205900_at KRT1: 95.82
- MEAN INTENSITY (N) 206295_at IL18: 188.27
- MEAN INTENSITY (N) 206342_x_at IDS: 267.58
- MEAN INTENSITY (N) 206645_s_at NR0B1: 107.59
- MEAN INTENSITY (N) 207719_x_at CEP170: 21.69
- MEAN INTENSITY (N) 207941_s_at RNPC2: 78.71
- MEAN INTENSITY (N) 208241_at NRG1: 18.19
- MEAN INTENSITY (N) 209022_at STAG2: 24.13
- MEAN INTENSITY (N) 209028_s_at ABI1: 109.59
- MEAN INTENSITY (N) 209194_at CETN2: 187.44
- MEAN INTENSITY (N) 209289_at NFIB: 64.90
- MEAN INTENSITY (N) 209726_at CA11: 105.08
- MEAN INTENSITY (N) 209792_s_at KLK10: 505.96
- MEAN INTENSITY (N) 210367_s_at PTGES: 246.35
- MEAN INTENSITY (N) 210387_at HIST1H2BG: 579.17
- MEAN INTENSITY (N) 211122_s_at CXCL11: 12.87
- MEAN INTENSITY (N) 211343_s_at COL13A1: 88.75
- MEAN INTENSITY (N) 211612_s_at IL13RA1: 104.96
- MEAN INTENSITY (N) 211671_s_at NR3C1: 263.10
- MEAN INTENSITY (N) 212007_at UBXD2: 117.00
- MEAN INTENSITY (N) 212221_x_at IDS: 571.11
- MEAN INTENSITY (N) 212223_at IDS: 186.65
- MEAN INTENSITY (N) 212414_s_at SEPT6: 68.28
- MEAN INTENSITY (N) 212415_at SEPT6: 11.03
- MEAN INTENSITY (N) 212510_at GPD1L: 22.53
- MEAN INTENSITY (N) 212531_at LCN2: 420.45
- MEAN INTENSITY (N) 212605_s_at: 41.36
- MEAN INTENSITY (N) 212616_at CHD9: 17.34
- MEAN INTENSITY (N) 212622_at TMEM41B: 26.02
- MEAN INTENSITY (N) 212640_at PTPLB: 459.88
- MEAN INTENSITY (N) 213016_at: 34.12
- MEAN INTENSITY (N) 213083_at SLC35D2: 234.84
- MEAN INTENSITY (N) 213135_at TIAM1: 24.42
- MEAN INTENSITY (N) 213229_at DICER1: 464.53
- MEAN INTENSITY (N) 213294_at: 18.29
- MEAN INTENSITY (N) 213593_s_at TRA2A: 34.25
- MEAN INTENSITY (N) 213729_at PRPF40A: 15.54
- MEAN INTENSITY (N) 214022_s_at IFITM1: 4135.74
- MEAN INTENSITY (N) 214112_s_at CXorf40A: 479.14
- MEAN INTENSITY (N) 214718_at GATAD1: 33.09
- MEAN INTENSITY (N) 214722_at NOTCH2NL: 159.38
- MEAN INTENSITY (N) 215206_at EXT1: 106.70
- MEAN INTENSITY (N) 215245_x_at FMR1: 78.43
- MEAN INTENSITY (N) 215813_s_at PTGS1: 76.88
- MEAN INTENSITY (N) 216095_x_at MTMR1: 318.26
- MEAN INTENSITY (N) 216942_s_at CD58: 34.65
- MEAN INTENSITY (N) 217388_s_at KYNU: 634.02
- MEAN INTENSITY (N) 217813_s_at SPIN: 59.32
- MEAN INTENSITY (N) 217947_at CMTM6: 498.31
- MEAN INTENSITY (N) 217948_at: 706.40
- MEAN INTENSITY (N) 217975_at WBP5: 441.28
- MEAN INTENSITY (N) 218053_at PRPF40A: 132.43
- MEAN INTENSITY (N) 218085_at CHMP5: 84.03
- MEAN INTENSITY (N) 218086_at NPDC1: 330.55
- MEAN INTENSITY (N) 218163_at MCTS1: 521.74
- MEAN INTENSITY (N) 218237_s_at SLC38A1: 608.07
- MEAN INTENSITY (N) 218668_s_at RAP2C: 54.25
- MEAN INTENSITY (N) 218986_s_at FLJ20035: 29.34
- MEAN INTENSITY (N) 219001_s_at WDR32: 26.25
- MEAN INTENSITY (N) 219010_at C1orf106: 585.64
- MEAN INTENSITY (N) 219045_at RHOF: 540.25
- MEAN INTENSITY (N) 219351_at TRAPPC2: 71.62
- MEAN INTENSITY (N) 219356_s_at CHMP5: 242.88
- MEAN INTENSITY (N) 219956_at GALNT6: 147.85
- MEAN INTENSITY (N) 219995_s_at FLJ13841: 795.33
- MEAN INTENSITY (N) 221553_at RP11-217II1.1: 90.64
- MEAN INTENSITY (N) 221581_s_at LAT2: 163.24
- MEAN INTENSITY (N) 221766_s_at FAM46A: 25.10
- MEAN INTENSITY (N) 221829_s_at TNPO1: 213.54
- MEAN INTENSITY (N) 221841_s_at KLF4: 264.55
- MEAN INTENSITY (N) 221844_x_at: 96.74
- MEAN INTENSITY (N) 222242_s_at KLK5: 26.38
- MEAN INTENSITY (N) 222266_at C19orf2: 25.69
